Data set [1] relates to IAV Fukui. More on the design: method as in Laure et al., 2020. The settings on record: medium containing 0.2% BSA, ref Laure et al., 2020; cited from earlier work.
The test system of data set [2] is Caco-2 cells. It is filed as cell-based. The settings on record: human, 24 h. As for the experimental part:
(§1) Per well, 2.5 × 10^4 Caco-2 cells or 4 × 10^4 Calu-3 cells were seeded in 96-well plates (Greiner Bio-One, Kremsmünster, Austria) and incubated for 24 h at 37°C, 5% CO2. Cell viability was assessed using a WST-1 assay according to the manufacturer’s recommendations (Roche, Basel, Switzerland). For reference, cell viability was assessed at 0 h and after 24 h of treatment with different concentrations of zapnometinib in medium containing 1% DMSO. The measured cell viability was normalized to the 0-h control. The CC50 value was determined using the “Sigmoidal, 4PL, X is log(concentration)” equation in GraphPad Prism.

Data set [3] concerns Calu-3 cells. The format is cell-based. The settings on record: human, 24 h. As for the experimental part: as §1
The subject of data set [4] is IAV RB1. More on the design: method as in Laure et al., 2020. Particulars: IAV RB1, medium containing 0.2% BSA; ref Laure et al., 2020; cited from earlier work.
In data set [5] the test system is MEK1/2 (ERK1/2 phosphorylation). Nature of the data set: IC50 determination in virus-infected cells, pERK/ERK ratio by WES. Particulars: for IC50: Homo sapiens. It is filed as cell-based, Homo sapiens. As for the experimental part: Calu-3 and Caco-2 cells were seeded in 24-well plates (Greiner Bio-One GmbH, Frickenhausen, Germany) and grown to 90% confluence. The cells were washed once with infection medium [IMDM supplemented with 0.2% bovine serum albumin (BSA) (Carl Roth GmbH + Co. KG, Karlsruhe, Germany) and 1% penicillin–streptomycin] prior to infection with a multiplicity of infection (MOI) of 0.01 of IAV PR8 or SARS-CoV-2 for 1 h in 200 µL of infection medium per well. Afterwards, the virus inoculum was removed completely, and the cells were washed once with infection medium and then treated with 1 mL per well of different concentrations of zapnometinib in infection medium with 1% dimethyl sulfoxide (DMSO) (Merck Millipore, Burlington, MA, USA) for 24 h at 37°C, 5% CO2. Supernatants were harvested and stored at −80°C for subsequent determination of virus titer and EC50 value. Cell lysates were prepared as described in the “Preparation of cell lysates and WES™ analysis” section for WES™ analysis.
Cells were lysed using cold modified RIPA buffer [0.24% (w/v) tris base (Sigma-Aldrich, St. Louis, Missouri, USA), 0.88% (w/v) NaCl (Carl Roth, Karlsruhe, Germany), 0.2% (v/v) 500 mM ethylenediaminetetraacetic acid (EDTA) (Sigma-Aldrich, St. Louis, Missouri, USA), 1% (v/v) Triton X-100 (Sigma-Aldrich, St. Louis, Missouri, USA), 0.5% (w/v) sodium deoxycholate (Sigma-Aldrich, St. Louis, Missouri, USA), 0.1% (w/v) sodium dodecyl sulfate (SDS) (Carl Roth, Karlsruhe, Germany), 10% (v/v) glycerol (Carl Roth, Karlsruhe, Germany), 0.05% phenylmethylsulfonyl fluoride (PMSF) (Carl Roth, Karlsruhe, Germany), 0.01% Benzonase® Nuclease (Sigma-Aldrich, St. Louis, Missouri, USA), protease inhibitor cocktail (Roche, Basel, Switzerland), and phosphatase inhibitor cocktail (Roche, Basel, Switzerland) in water]. Determination of the protein concentration was performed using the Pierce™ BCA Protein Assay Kit (Thermo Fisher Scientific Inc., Waltham, MA, USA) according to the manufacturer’s instructions. The samples were analyzed by Wes™ using a total protein concentration of 0.25–0.5 µg/µL for each sample, the Jess/Wes Separation kit (12–230 kDa), primary antibodies against ERK1/2, p44/42 MAPK (137F5) Rabbit mAb (Cell Signaling Technology, Danvers, MA, USA, Cat. No. 4695S) and phospho-ERK1/2 (pERK1/2), Phospho-p44/42 MAPK (Erk1/2) (Thr202/Tyr204) (D13.14.4E), XP® Rabbit mAb (Cell Signaling Technology, Danvers, MA, USA, Cat. no. 4370S) in a 1:50 dilution, anti-Influenza A virus Nucleoprotein (NP) antibody (rabbit MAb) (Sino Biological, Beijing, China Cat.no 40208-R010) in a 1:150 dilution, SARS-CoV-2 nucleocapsid protein antibody (ProSci Inc., Poway, CA, USA, Cat. no. 35-580) in a 1:100 dilution, the anti-goat, anti-rabbit, and anti-mouse detection modules, and the EZ Standard Pack 1 (12–230 kDa), according to the manufacturer’s instructions. Analysis of the obtained data was performed using the Compass for SW 4.1.0 software, Microsoft Excel, and the GraphPad Prism 9.2.0 software. Ratios were calculated from the area under the curve of the respective detected signals.
Twenty-four hours before the experiment, the growth medium was exchanged to medium with respective FBS or BSA concentration. Then, cells were stimulated by the addition of tumor necrosis factor alpha (TNF-α) (Sigma-Aldrich, St. Louis, Missouri, USA) for 30 min at 37°C, 5% CO2, followed by treatment with different zapnometinib concentrations and a DMSO (solvent) control for 1 h. For determination of the IC50 value in cells infected with IAV PR8 or SARS-CoV-2, cells were infected with the respective virus and treated with zapnometinib for 24 h as described in the “Virus yield reduction assay” section. After incubation, cell lysates were prepared, and the samples were analyzed by WES™ as described in the “Preparation of cell lysates and WES™ analysis” section. The pERK/ERK ratio was calculated and normalized to the solvent control. […]

Where two headings read alike, the source gives them in different places.

Take `O=C(O)c1ccc(F)c(F)c1Nc1ccc(I)cc1Cl` [zapnometinib, 2-(2-chloro-4-iodophenylamino)-N-3,4-difluoro benzoic acid]: the EC50 (in general, the midpoint of the concentration-response curve) in data set [1] is 4.5 µM; in data set [4] it was 6.36 µM. The CC50 (in general, the concentration at which the toxic effect on the cells reaches its halfway point) in data set [2] came out at 360 µM; in data set [3], 303 µM. Moreover, the “Level of MEK activation (ERK phosphorylation) at EC50” value in data set [5] (Caco-2 cells, IAV PR8, interpolated at EC50 5.72 µM) came to 37%; in data set [5] (Caco-2 cells, SARS-CoV-2, interpolated at EC50 22.9 µM), 25%; in data set [5] (Calu-3 cells, IAV PR8, interpolated at EC50 7.13 µM), 25%; in data set [5] (Calu-3 cells, SARS-CoV-2, interpolated at EC50 19.7 µM) it was 10%. In addition, the IC50 – broadly, the point on the concentration scale where inhibition reaches its midpoint – came out at 2.24 µM in data set [5] (Caco-2, 24 h, read-out: IC50 value (ERK phosphorylation) in infected cells, IAV PR8-infected Caco-2 cells, MOI 0.01, 0.2% BSA, 24 h); 5.65 µM in data set [5] (Caco-2, 24 h, read-out: IC50 value (ERK phosphorylation) in infected cells, SARS-CoV-2-infected Caco-2 cells, MOI 0.01, 0.2% BSA, 24 h, bottom plateau constrained to 0); 1.01 µM in data set [5] (Calu-3, 24 h, read-out: IC50 value (ERK phosphorylation) in infected cells, IAV PR8-infected Calu-3 cells, MOI 0.01, 0.2% BSA, 24 h); 1.99 µM in data set [5] (Calu-3, 24 h, read-out: IC50 value (ERK phosphorylation) in infected cells, SARS-CoV-2-infected Calu-3 cells, MOI 0.01, 0.2% BSA, 24 h).

The values are drawn from PMC10641236, “Influenza A virus replication has a stronger dependency on Raf/MEK/ERK signaling pathway activity than SARS-CoV-2” (Frontiers in Cellular and Infection Microbiology, 2023).
